This is an account of results in patent US12421517B2, “Genetic modification of mammalian cells to confer resistance to CSF1R antagonists” (THE REGENTS OF THE UNIVERSITY OF CALIFORNIA, priority 2021, dated 2025).

SMILES strings stand for the structures. “Also recorded” adds a separate entry of the source.

Assay [1] has as its system wild-type (WT) iPSC-microglia. The experiment in a line: LIVE/DEAD viability/cytotoxicity assay. The assay is classed as cell-based, human. The note with it: 500 nM or 1 uM, 24 hours. On the procedure: (§1) FIGS. 5A and 5B show G795A iPSC-derived microglia are resistant to CSF1R antagonist-induced cell death. As cells can die from processes other than caspase-mediated apoptosis, it is important to determine whether the G795A mutation provides a more broad-based resistance to any form of cell death induced by CSF1R antagonists. Therefore, G795A and wild-type (WT) iPSC-microglia were treated for 24 hours with either 500 nM (FIG. 5A) or 1 uM (FIG. 5B) of DMSO vehicle control or one of four CSF1R antagonists; PLX3397, PLX5622, Edicotinib, and BLZ945. The percent of live versus dead cells was then quantified using a two-color viability/cytotoxicity approach (Thermo L3224; LIVE/DEAD™ Viability/Cytotoxicity Kit). Very few dead microglia are observed 24 hours after treatment with DMSO. […] Live cells are denoted with a circle.

Assay [2] has as its system G795A iPSC-microglia. In words: LIVE/DEAD viability/cytotoxicity assay. It counts as cell-based, human. The settings on record: 500 nM or 1 uM, 24 hours. On the procedure: as §1
Assay [3] deals with WT microglia. In words: Caspase 3/7 cell death assay (IncuCyte, 24 h imaging). The assay is classed as cell-based, human. The settings on record: 250 nM, 500 nM, 1 μm, versus DMSO control. The text has this: (§2) FIGS. 4A, 4B, 4C, 4D, and 4E show human stem cell-derived microglia are also susceptible to and killed by CSF1R inhibition in vitro. […] Images captured on Incucyte S3 live-cell imager. […] Images captured on Incucyte S3 live-cell imager. […] Images captured on Incucyte S3 live-cell imager. […] Images captured on Incucyte S3 live-cell imager. […] For all panels, n=4 images in six independent wells were quantified. Data represented as mean values±SEM.
(§3) Strategy 1: A crystal structure of the CSF1R receptor bound to an antagonist (PMID: 31434879) to predict amino acid substitutions that may sterically hinder the binding of CSF1R antagonists while not impairing the normal binding of ATP into the same binding pocket. The crystal structure of PLX5622 bound to human CSF1R was obtained and the ATP binding pocket was examined (FIG. 7A). Through molecular modeling single amino acid changes were predicted that would likely impair the binding of PLX5622 or PLX3397 or other CSF1R antagonists while not disrupting normal ATP binding to CSF1R. […] Other mutations could also be explored to prevent binding (FIG. 7D). […] The resulting iPSCs were then differentiated into microglia and exposed to varying concentrations of either PLX3397 or PLX5622. To detect microglial cell death (apoptosis) a caspase-3/7 fluorogenic reporter was used. […] FIG. 4F provided representative images of cell density (phase-contrast microscopy, 1st column) and fluorescent Caspase-3/7 activity (2nd column) across each dose of PLX3397 and PLX5622.
(§4) Resistance to each of the CSF1R inhibitors tested was quantified using a fluorogenic caspase 3/7 detector (Essen BioScience) and time-lapse imaging over 24 hours.
(§5) Cell death assay: iPS-microglia were plated at 70K cells per 96-well plate (6 wells per line per condition). At time 0, all microglia were treated with IncuCyte Caspase-3/7 Green Apoptosis Assay Reagent 1:1000. Cells were maintained in the described medium: fresh complete medium+0.1% DMSO, complete media+250 nM PLX3397, complete medium+500 nM PLX3397, complete medium+1 μm PLX3397, complete medium+250 nM PLX5622, complete medium+500 nM PLX5622, complete medium+1 μm PLX5622, complete medium+250 nM Edicotinib, complete medium+500 nM Edicotinib, complete medium+1 μm Edicotinib, complete medium+250 nM BLZ945, complete medium+500 nM BLZ945, complete medium+1 μm BLZ945. Four 20× images per well were collected every hour for 24 hours. Using IncuCyte 2020B software, image masks for phase confluence (visually gated out apoptotic cells) as well as caspase 3/7 signal (green) were generated. Graphs display caspase normalized to phase confluence, completed with 3 lines: WT, G795A, G795C (see FIGS. 4A, 4B, 4C, 4D, and 4E).

Assay [4] relates to G795A iPSC-microglia. The assay is described as above. It counts as cell-based, human. The note with it: 250 nM, 500 nM, 1 μm, versus DMSO control.
From the text: as §2, §3, §4, §5

A further assay deals with G795C iPSC-microglia. The description is as above. It counts as cell-based, human. The note with it: 250 nM, 500 nM, 1 μm, versus DMSO control.
From the text: as §2, §3, §4, §5

Assay [5] relates to CSF1R-G795A human iPSC-microglia. The experiment in a line: Quantification of human iPSC-microglial engraftment (Ku80+/Iba1+) in adult hCSF1 mice. The note with it: after CSF1R-G795A iPSC-microglia transplantation, 600 mg/kg PLX3397 in food. The assay is classed as in vivo. On the procedure: In contrast, when CSF1R-G795A iPSC-microglia transplantation is followed with treatment of mice for 10 days with PLX3397 containing mouse chow (600 mg/kg PLX3397 in food), the percent of human microglia increases to almost 25%. After 30 days of PLX3397 treatment (600 mg/kg PLX3397 in food), 90-95% of all microglia in the brain are human as evidenced by co-expression of Ku80 and IBA1. By transplanting CSF1R-G795A iPSC-microglia and varying the concentration and duration of CSF1R antagonist treatment either before, during, or after transplantation, one can control the degree of human iPSC-microglial engraftment.

The test system of a further assay is wild-type human xMGs. In words: Xenotransplanted human microglia in adult mice, PLX3397 chow, immunohistochemistry. It counts as in vivo. The note with it: 600 mg/kg in rodent chow ad libitum, 4 weeks. An excerpt:
(§6) FIGS. 11A, 11B, 110, 11D, 11E, 11F, 11G, 11H, 11I, and 11J show G795A iPSC-derived microglia are resistant to CSF1R […] treatment and enable robust engraftment of human microglia within the adult mammalian brain. Xenotransplantation-compatible mice received bilateral stereotactic intrahippocampal injections of 500,000 iPSC-derived human microglia (xMGs) at 2-months of age. Mice received xMGs differentiated from either a homozygous CSF1R-resistant G795A human IPSO line or an isogenic unmodified Wad-Type human iPSC. At […], mice were treated with 600 mg/kg of PLX3397 in rodent chow ad libitum for 4 weeks duration. Mice were then sacrificed, and half-brains were examined by fluorescent immunohistochemistry and confocal microscopy.

A further assay has as its system G795A xMGs. The description is as above. It counts as in vivo. The note with it: 600 mg/kg in rodent chow ad libitum, 4 weeks.
From the text: as §6

In another assay the test system is MUT1 (G795A) microglia. The experiment in a line: RNA-seq after 24-hour treatment versus DMSO. It counts as cell-based, human. The text has this:
(§7) FIGS. 2A, 2B, 2C, 2D, 2E, and 2F show selected CSF1R mutations have little effect on transcriptomic signature while simultaneously imparting resistance to PLX5622.

The subject of assay [6] is WT microglia. In words: RNA-seq after 24-hour treatment versus DMSO. The assay is classed as cell-based, human. The settings on record: FDR≤0.05, log 2(FC)≥±1.
From the text: as §7

The next assay has as its system MUT2 (G795C) microglia. In words: RNA-seq after 24-hour treatment versus DMSO. It counts as cell-based, human.
From the text: as §7

Consider `CNC(=O)c1cc(Oc2ccc3nc(N[C@@H]4CCCC[C@H]4O)sc3c2)ccn1` [BLZ945], for which the “cell death (live versus dead cells)” value is “substantial cell death” in assay [1] and “little-to-no cell death” in the assay with G795A iPSC-microglia [2]. Further, the “caspase 3/7 levels (cell death, apoptosis)” value (from here on “caspase 3/7 levels”) in the assay with WT microglia [3] is “significant levels of increased caspase”; in the assay with G795A iPSC-microglia [4] it was “no significant increase in caspase levels”; with G795C iPSC-microglia it was “no significant increase in caspase levels”.

For the compound `CC1(C)CC=C(c2nc(C3CC(C)(C)OC(C)(C)C3)ccc2NC(=O)c2nc(C#N)c[nH]2)CC1` [Edicotinib], the “cell death (live versus dead cells)” value is “substantial cell death” in [1] and “little-to-no cell death” in the assay on G795A iPSC-microglia [2]. Also, the “caspase 3/7 levels” value in the assay with WT microglia [3] was “significant levels of increased caspase”; with G795A iPSC-microglia [4], “no significant increase in caspase levels”; in the assay on G795C iPSC-microglia it was “no significant increase in caspase levels”.

As to `FC(F)(F)c1ccc(CNc2ccc(Cc3c[nH]c4ncc(Cl)cc34)cn2)cn1` [PLX3397], the “cell death (live versus dead cells)” value is recorded as “substantial cell death” in [1] and “little-to-no cell death” with G795A iPSC-microglia [2]. For the same compound, the “percent of human microglia (Ku80+/Iba1+) of total microglia” value in [5] (10 days) was approximately 25%; in [5] (30 days) it was 90-95%. The “survival of transplanted xMGs in the brain” value with wild-type human xMGs was “only a handful of wild-type human xMGs survive”. Further, the “survival and expansion of transplanted xMGs in the brain” value in the assay with G795A xMGs is “proliferate and expand”. Moreover, the “caspase 3/7 levels” value in the assay with WT microglia [3] is on record as “robust dose-dependent induction of apoptosis; also recorded: significant levels of increased caspase”; in the assay with G795A iPSC-microglia [4], “complete resistance to cell death; also recorded: no significant increase in caspase levels”; with G795C iPSC-microglia, “complete resistance to cell death; also recorded: no significant increase in caspase levels”.

Take `COc1ncc(F)cc1CNc1ccc(Cc2c[nH]c3ncc(C)cc23)c(F)n1` [PLX5622]: the “cell death (live versus dead cells)” value in assay [1] is “substantial cell death”; in the assay with G795A iPSC-microglia [2], “little-to-no cell death”. For the same compound, the “caspase 3/7 levels” value is “robust dose-dependent induction of apoptosis; also recorded: significant levels of increased caspase” in the assay on WT microglia [3], “complete resistance to cell death; also recorded: no significant increase in caspase levels” in the assay with G795A iPSC-microglia [4] and “complete resistance to cell death; also recorded: no significant increase in caspase levels” in the assay with G795C iPSC-microglia. Moreover, the entries for the “transcriptomic alterations versus DMSO-treated cells” value with MUT1 (G795A) microglia, in the assay on WT microglia [6] and in the assay on MUT2 (G795C) microglia were “failed to significantly alter gene expression”, “induced significant transcriptomic alterations” and “failed to significantly alter gene expression”, respectively.
